Data: ChEMBL document CHEMBL1201862, “PubChem BioAssay data set” (2004)
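Tested at 5 concentrations; 48 h exposure; 96-well plates; endpoints linearly interpolated, else capped at highest concentration. GI50 = concentration required for 50% inhibition of growth.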 Active and inactive are the calls of the source. No stated cut-off is given here; in the data, active = GI50 up to about 1.1 µM and inactive = higher.

Legend:
Assay in all cases: inhibition of tumour cell growth, NCI panel, 48 h
K562 = tested on: K562
LOX IMVI = tested on: LOX IMVI
SK-OV-3 = tested on: SK-OV-3
COLO 205 = tested on: COLO 205
UACC-62 = tested on: UACC-62
SF-268 = tested on: SF-268
M14 = tested on: M14
MDA-MB-231 = tested on: MDA-MB-231
BT-549 = tested on: BT-549
HT-29 = tested on: HT-29
OVCAR-8 = tested on: OVCAR-8
A549 = tested on: A549
SK-MEL-28 = tested on: SK-MEL-28
SR = tested on: SR
PC-3 = tested on: PC-3
RXF 393 = tested on: RXF 393
HL-60 = tested on: HL-60
MDA-N = tested on: MDA-N
NCI-H460 = tested on: NCI-H460
SF-539 = tested on: SF-539
SW-620 = tested on: SW-620
HCT-15 = tested on: HCT-15
MCF7 = tested on: MCF7
U-251 = tested on: U-251
RPMI-8226 = tested on: RPMI-8226
HOP-92 = tested on: HOP-92
SK-MEL-5 = tested on: SK-MEL-5
CCRF-CEM = tested on: CCRF-CEM
UO-31 = tested on: UO-31
SK-MEL-2 = tested on: SK-MEL-2
IGROV-1 = tested on: IGROV-1
786-0 = tested on: 786-0
SNB-19 = tested on: SNB-19
KM12 = tested on: KM12
ACHN = tested on: ACHN
HOP-62 = tested on: HOP-62
DU-145 = tested on: DU-145
SN12C = tested on: SN12C
MDA-MB-435 = tested on: MDA-MB-435
HCT-116 = tested on: HCT-116
OVCAR-3 = tested on: OVCAR-3
Hs-578T = tested on: Hs-578T
SNB-75 = tested on: SNB-75
OVCAR-4 = tested on: OVCAR-4
TK-10 = tested on: TK-10
NCI/ADR-RES = tested on: NCI/ADR-RES
EKVX = tested on: EKVX
T47D = tested on: T47D
UACC-257 = tested on: UACC-257
CAKI-1 = tested on: CAKI-1
SF-295 = tested on: SF-295
HCC 2998 = tested on: HCC 2998
MOLT-4 = tested on: MOLT-4
OVCAR-5 = tested on: OVCAR-5
NCI-H23 = tested on: NCI-H23
NCI-H226 = tested on: NCI-H226
Malme-3M = tested on: Malme-3M
A498 = tested on: A498

With `Cc1cc2nc(N3C(=O)/C(=C/c4cccc([N+](=O)[O-])c4)N=C3c3ccccc3)sc2cc1C` the GI50 (K562) was 30.1 µM (inactive), the GI50 (LOX IMVI) was 19.2 µM (inactive) and the GI50 (SK-OV-3) was 67.8 µM (inactive). For the same compound, the GI50 (COLO 205) was 36.3 µM (inactive), the GI50 (UACC-62) was 33.5 µM (inactive) and the GI50 (SF-268) was 25.9 µM (inactive). For the same compound, the GI50 (M14) was 37.2 µM (inactive), the GI50 (MDA-MB-231) was 62.4 µM (inactive) and the GI50 (BT-549) was 32.4 µM (inactive). The GI50 (HT-29) was 27.5 µM (inactive), the GI50 (OVCAR-8) was 21.4 µM (inactive) and the GI50 (A549) was 36.1 µM (inactive). For the same compound, the GI50 (SK-MEL-28) was 57.8 µM (inactive), the GI50 (SR) was 14.9 µM (inactive) and the GI50 (PC-3) was 17.4 µM (inactive). For the same compound, the GI50 (RXF 393) was 15.6 µM (inactive), the GI50 (HL-60) was 19.8 µM (inactive) and the GI50 (MDA-N) was 12.5 µM (inactive). For the same compound, the GI50 (NCI-H460) was 29.2 µM (inactive), the GI50 (SF-539) was 39.4 µM (inactive) and the GI50 (SW-620) was 27 µM (inactive). The GI50 (HCT-15) was 36.5 µM, the GI50 (MCF7) was 16.1 µM (inactive) and the GI50 (U-251) was 22.8 µM (inactive). For the same compound, the GI50 (RPMI-8226) was 21.1 µM (inactive), the GI50 (HOP-92) was 6.7 µM (inactive) and the GI50 (SK-MEL-5) was 30.1 µM (inactive). For the same compound, the GI50 (CCRF-CEM) was 9.95 µM (inactive), the GI50 (UO-31) was 32.5 µM (inactive) and the GI50 (SK-MEL-2) was 23.1 µM (inactive). The GI50 (IGROV-1) was 12.5 µM (inactive), the GI50 (786-0) was 40.3 µM (inactive) and the GI50 (SNB-19) was 34.1 µM (inactive). For the same compound, the GI50 (KM12) was 27.2 µM (inactive), the GI50 (ACHN) was 37 µM (inactive) and the GI50 (HOP-62) was 35.7 µM (inactive). The GI50 (DU-145) was 42.8 µM (inactive), the GI50 (SN12C) was 26.7 µM (inactive) and the GI50 (MDA-MB-435) was 12.8 µM (inactive). The GI50 (HCT-116) was 23.9 µM (inactive), the GI50 (OVCAR-3) was 32 µM (inactive) and the GI50 (Hs-578T) was 24.5 µM (inactive). The GI50 (SNB-75) was 6.84 µM (inactive), the GI50 (OVCAR-4) was 25.8 µM (inactive) and the GI50 (TK-10) was 71.1 µM (inactive). The GI50 (NCI/ADR-RES) was 28.4 µM (inactive), the GI50 (EKVX) was 18.8 µM (inactive) and the GI50 (T47D) was 27.1 µM (inactive). The GI50 (UACC-257) was 42.6 µM (inactive), the GI50 (CAKI-1) was 52 µM (inactive) and the GI50 (SF-295) was 32.4 µM (inactive). For the same compound, the GI50 (HCC 2998) was 21.4 µM (inactive), the GI50 (MOLT-4) was 12.9 µM (inactive) and the GI50 (OVCAR-5) was 40.2 µM (inactive).
In the case of `COC(=O)c1c(C(=O)OC)c(C(c2ccccc2)c2ccccc2)n(-c2ccccc2)c1Cl`, the GI50 (K562) is reported as 4.14 µM (inactive), the GI50 (NCI-H23) is reported as 6.76 µM (inactive) and the GI50 (COLO 205) is reported as 6.03 µM (inactive). The GI50 (UACC-62) was 9.33 µM (inactive), the GI50 (SF-268) was > 10 µM (inactive) and the GI50 (M14) was > 10 µM (inactive). The GI50 (MDA-MB-231) was > 10 µM (inactive), the GI50 (BT-549) was 7.16 µM (inactive) and the GI50 (HT-29) was 4.61 µM (inactive). The GI50 (OVCAR-8) was > 10 µM (inactive), the GI50 (A549) was 7.03 µM (inactive) and the GI50 (SK-MEL-28) was > 10 µM (inactive). For the same compound, the GI50 (SR) was 3.17 µM (inactive), the GI50 (PC-3) was 3.09 µM (inactive) and the GI50 (RXF 393) was > 10 µM (inactive). The GI50 (NCI-H226) was > 10 µM (inactive), the GI50 (HL-60) was 4.06 µM (inactive) and the GI50 (MDA-N) was > 10 µM (inactive). The GI50 (NCI-H460) was > 10 µM (inactive), the GI50 (SF-539) was > 10 µM (inactive) and the GI50 (SW-620) was 7.43 µM (inactive). For the same compound, the GI50 (HCT-15) was 5.5 µM, the GI50 (MCF7) was 7.76 µM (inactive) and the GI50 (Malme-3M) was 5.79 µM (inactive). The GI50 (A498) was > 10 µM (inactive), the GI50 (U-251) was 6.73 µM (inactive) and the GI50 (RPMI-8226) was 3.35 µM (inactive). For the same compound, the GI50 (HOP-92) was 9.14 µM (inactive), the GI50 (SK-MEL-5) was > 10 µM (inactive) and the GI50 (CCRF-CEM) was 4.61 µM (inactive). For the same compound, the GI50 (UO-31) was 3.81 µM (inactive), the GI50 (IGROV-1) was > 10 µM (inactive) and the GI50 (786-0) was > 10 µM (inactive). The GI50 (SNB-19) was > 10 µM (inactive), the GI50 (KM12) was 4.69 µM (inactive) and the GI50 (ACHN) was 6.25 µM (inactive). For the same compound, the GI50 (HOP-62) was > 10 µM (inactive), the GI50 (DU-145) was > 10 µM (inactive) and the GI50 (SN12C) was > 10 µM (inactive). For the same compound, the GI50 (MDA-MB-435) was 7.16 µM (inactive), the GI50 (HCT-116) was 3.7 µM (inactive) and the GI50 (OVCAR-3) was 5.66 µM (inactive). The GI50 (Hs-578T) was 3.43 µM (inactive), the GI50 (OVCAR-4) was 6.49 µM (inactive) and the GI50 (TK-10) was > 10 µM (inactive). The GI50 (NCI/ADR-RES) was 4.24 µM (inactive), the GI50 (EKVX) was 5.75 µM (inactive) and the GI50 (T47D) was 4.74 µM (inactive). The GI50 (UACC-257) was 7.14 µM (inactive), the GI50 (CAKI-1) was > 10 µM (inactive) and the GI50 (SF-295) was 5 µM (inactive). The GI50 (HCC 2998) was > 10 µM (inactive), the GI50 (MOLT-4) was 2.24 µM (inactive) and the GI50 (OVCAR-5) was > 10 µM (inactive).
